Reference: article PMC8617944, “Preclinical Pharmacokinetics and Acute Toxicity in Rats of 5-{[(2E)-3-Bromo-3-carboxyprop-2-enoyl]amino}-2-hydroxybenzoic Acid: A Novel 5-Aminosalicylic Acid Derivative with Potent Anti-Inflammatory Activity” (Molecules, 2021)
“Also recorded” adds a separate entry of the source. Where two headings read alike, the source gives them in different places.

Experiments:
Wistar rats = experiment: Acute toxicity, up-and-down OECD method (Guideline 425); format: in vivo
Description: (§1) For all experiments, rats were allowed to acclimatize to the lab conditions during one week prior to undergoing assays. For the pharmacokinetic studies, animals were randomly divided into three groups (n = 6, body weight 300 ± 20 g). Eight female rats were employed in the up-and-down acute toxicity procedure. The animals were fasted for 8 h before and 4 h after drug administration but always given free access to water.
(§2) If the first animal dies, the second animal is given a lower dose. A dose progression factor of 3.2 can be used. […] The animals were monitored for 14 days post-dosing and then sacrificed. The LD50 values were calculated with AOTStatPgm.

[1] = as above; format: in vivo; conditions: both sexes, rat, in vivo, Wistar rats, read-out: Median lethal dose (LD50)
Description: as §1, §2

[2] = parameters: method as in ref 32, 33 = [32]; doi:10.1016/j.arabjc.2016.12.026; 32. Cabrera Pérez L.C. Gutiérrez Sánchez M. Mendieta Wejebe J.E. Hernández Rodríguez M. Fragoso Vázquez M.J. Salazar J.R. Correa Basurto J. Padilla Martínez I.I. Rosales Hernández M.C. Novel 5-aminosa || [33]; 33. Correa Basurto J. Rosales Hernández M.C. Mendieta Wejebe J.E. Trujillo Ferrara J.G. Padilla Martínez I.I. Ramírez Durán L.A. Alemán González Duhart D. Síntesis de un derivado del ácido 5-aminosali; conditions: 0.408 mM; cited from earlier work
[3] = Pharmacokinetic profiles after p.o., i.p. and i.v. administration; format: in vivo, Wistar rats; conditions: for absorption half-life: read-out: t1/2a, absorption half-life (converted); for Cmax: read-out: Cmax, maximum plasma concentration; for k el: read-out: Ke, elimination rate constant (converted); for MRT: read-out: MRT, mean residence time; for Tmax: read-out: tmax, time to maximum plasma concentration (converted); for Ka, absorption rate constant: non-compartmental
Description: On the same day as C1 administration, the rats (three groups, n = 6) were previously cannulated for compound administration by the p.o., i.p., and i.v. routes. A 24 G catheter was placed in the right lateral tail vein for blood collection. A first group of rats received a single dose of 50 mg/kg applied p.o. with a 20 G gavage needle. A dose of 75 mg/kg of C1 was injected i.p. into the rats in the second group. A single dose of 50 mg/kg was given i.v. to the third group by means of another catheter previously placed in the left lateral tail vein. The doses used in this study were selected based on previous pharmacokinetic studies reported in rats for 5-ASA [60] or for derivatives of this compound [61]. Animals were provided with the standard diet 4 h after dosing. […] The volume of blood removed was supplemented with an equal volume of 0.9% sodium chloride solution. The blood samples were centrifuged at 8000 rpm for 15 min to harvest 100 μL of plasma.
Plasma samples were processed immediately. Briefly, 450 µL of acetonitrile was added to 100 µL of plasma and vortexed for 5 min. Subsequently, 450 µL of methanol was added, and the sample was vortexed again, followed by centrifugation to precipitate the proteins. Finally, 10 µL of the supernatant were used for evaluation of the plasma concentration of C1 by RP-HPLC with the UV detection method, previously validated for the pharmacokinetic and complementary assays herein performed.
The plasma concentration–time data were plotted. […] Pharmacokinetic parameters of C1 were calculated on Kinetica 5.0 software (Adept Scientific Ltd), including the maximum plasma concentration (Cmax), time to maximum plasma concentration (tmax), elimination half-life (t1/2e), the area under the plasma concentration-time curve from time zero to the last measurable concentration (AUC0-t), the area under the plasma concentration-time curve from time zero to infinity (AUCtot), mean residence time (MRT), clearance (CL), and apparent volume of distribution (Vd).

[4] = Wistar, rat, plasma, ip, 75 mg/kg, i.p. 75 mg/kg, n = 6
[5] = Wistar, rat, plasma, ip, 75 mg/kg, plasma, i.p. 75 mg/kg, n = 6, read-out: Average Concentration
[6] = Wistar, rat, plasma, ip, 75 mg/kg, plasma, i.p. 75 mg/kg, individual rats, read-out: Concentration (µg/mL), Rat 1-6
[7] = Wistar, rat, plasma, ip, i.p. 75 mg/kg, rats
[8] = Wistar, rat, plasma, iv, 50 mg/kg, i.v. 50 mg/kg, n = 6
[9] = Wistar, rat, plasma, iv, 50 mg/kg, plasma, i.v. 50 mg/kg, n = 6, read-out: Average Concentration
[10] = Wistar, rat, plasma, iv, 50 mg/kg, plasma, i.v. 50 mg/kg, individual rats, read-out: Concentration (µg/mL), Rat 1-6
[11] = Wistar, rat, plasma, iv, i.v. 50 mg/kg, rats
[12] = Wistar, rat, plasma, po, 50 mg/kg, i.g. (p.o.) 50 mg/kg, n = 6
[13] = Wistar, rat, plasma, po, 50 mg/kg, plasma, i.g. (p.o.) 50 mg/kg, individual rats, read-out: Concentration (µg/mL), Rat 1-6
[14] = Wistar, rat, plasma, po, 50 mg/kg, plasma, i.g. (p.o.) 50 mg/kg, n = 6, read-out: Average Concentration
[15] = Wistar, rat, plasma, po, p.o. 50 mg/kg, rats
[16] = two-compartment model, Kinetica 5.0

SMILES: O=C(/C=C(/Br)C(=O)O)Nc1ccc(O)c(C(=O)O)c1 [Compound C1, 5-{[(2E)-3-bromo-3-carboxyprop-2-enoyl]amino}-2-hydroxybenzoic acid]
- GHS category (Wistar rats; i.p. route): 4
- macroscopic changes at necropsy (Wistar rats; liver, small intestine, colon, heart, spleen, stomach, kidneys): no macroscopic changes were observed; also recorded: non-macroscopic changes
- GHS category (Wistar rats; p.o. route): 5
- signs of toxicity (Wistar rats; p.o. route, 14 days): did not show any signs of apparent toxicity
- LD50 at 14 days ([1]; ip): > 1100 mg/kg
- LD50 at 14 days ([1]; po): > 2000 mg/kg
- reduction of the free radical DPPH [2]: about 90%
- concentration at 5 min [3, 4]: 15900 ng/mL
- concentration at 10 min [3, 4]: 17600 ng/mL
- concentration at 30 min [3, 4]: 19900 ng/mL
- concentration at 45 min [3, 4]: 17700 ng/mL
- concentration at 60 min [3, 4]: 15200 ng/mL
- concentration at 90 min [3, 4]: 11200 ng/mL
- concentration at 120 min [3, 4]: 9000 ng/mL
- concentration at 180 min [3, 4]: 5200 ng/mL
- concentration at 240 min [3, 4]: 2900 ng/mL
- absorption half-life ([3]; Wistar, rat, plasma, ip, 75 mg/kg, i.p. 75 mg/kg, rats): 78 ± 30 min
- half-life ([3]; Wistar, rat, plasma, ip, 75 mg/kg, i.p. 75 mg/kg, rats, read-out: t1/2e, elimination half-life (converted)): 84 ± 12 min
- concentration at 20 min [3, 5]: 19.8 µg/mL
- concentration at 300 min [3, 6]: 0 µg/mL
- concentration at 300 min [3, 5]: 0 µg/mL
- concentration at 360 min [3, 6]: 0 µg/mL
- concentration at 360 min [3, 5]: 0 µg/mL
- concentration at 540 min [3, 6]: 0 µg/mL
- concentration at 540 min [3, 5]: 0 µg/mL
- concentration at 720 min [3, 6]: 0 µg/mL
- concentration at 720 min [3, 5]: 0 µg/mL
- Cmax [3, 7]: 22000 ± 1000 ng/mL
- k el [3, 7]: 0.000139 s⁻¹
- MRT [3, 7]: 3.1 ± 0.9 h
- Tmax [3, 7]: 33 min
- concentration at 5 min [3, 8]: 10500 ng/mL
- concentration at 10 min [3, 8]: 7800 ng/mL
- concentration at 30 min [3, 8]: 5300 ng/mL
- concentration at 45 min [3, 8]: 4200 ng/mL
- concentration at 60 min [3, 8]: 4000 ng/mL
- concentration at 90 min [3, 8]: 3400 ng/mL
- concentration at 120 min [3, 8]: 2200 ng/mL
- concentration at 180 min [3, 8]: 1500 ng/mL
- concentration at 240 min [3, 8]: 1400 ng/mL
- half-life ([3]; Wistar, rat, plasma, iv, 50 mg/kg, i.v. 50 mg/kg, rats, read-out: t1/2e, elimination half-life (converted)): ~54 min
- concentration at 20 min [3, 9]: 6 µg/mL
- concentration at 300 min [3, 9]: 1.2 µg/mL
- concentration at 360 min [3, 9]: 0.756 µg/mL
- concentration at 540 min [3, 10]: 0 µg/mL
- concentration at 540 min [3, 9]: 0 µg/mL
- concentration at 720 min [3, 10]: 0 µg/mL
- concentration at 720 min [3, 9]: 0 µg/mL
- clearance ([3]; Wistar, rat, plasma, iv, i.v. 50 mg/kg, rats, read-out: CL, clearance): 24 ± 5 mL/min
- C0 ([3]; Wistar, rat, plasma, iv, i.v. 50 mg/kg, rats, read-out: Cp^0, initial plasma concentration): 11000 ± 1900 ng/mL
- k el [3, 11]: 0.000222 s⁻¹
- MRT [3, 11]: 1.7 ± 0.4 h
- Vd ([3]; Wistar, rat, plasma, iv, i.v. 50 mg/kg, rats, read-out: Vd, volume of distribution): 5.2 ± 0.9 L/kg
- bioavailability ([3]; Wistar, rat, plasma, oral, 50 mg/kg, p.o. 50 mg/kg vs i.v. 50 mg/kg, rats, read-out: absolute oral bioavailability): ~77%
- concentration at 5 min [3, 12]: 2200 ng/mL
- concentration at 10 min [3, 12]: 2200 ng/mL
- concentration at 30 min [3, 12]: 2500 ng/mL
- concentration at 45 min [3, 12]: 2100 ng/mL
- concentration at 60 min [3, 12]: 2100 ng/mL
- concentration at 90 min [3, 12]: 1800 ng/mL
- concentration at 120 min [3, 12]: 1500 ng/mL
- concentration at 180 min [3, 12]: 1000 ng/mL
- concentration at 240 min [3, 12]: 665 ng/mL
- absorption half-life ([3]; Wistar, rat, plasma, po, 50 mg/kg, p.o. 50 mg/kg, rats): 84 ± 18 min
- half-life ([3]; Wistar, rat, plasma, po, 50 mg/kg, p.o. 50 mg/kg, rats, read-out: t1/2e, elimination half-life (converted)): > 150 min
- concentration at 20 min [3, 13]: 2.2 µg/mL
- concentration at 20 min [3, 14]: 2.6 µg/mL
- concentration at 300 min [3, 14]: 0.5 µg/mL
- concentration at 360 min [3, 14]: 0.34 µg/mL
- concentration at 540 min [3, 14]: 0.136 µg/mL
- concentration at 600 min [3, 13]: 0 µg/mL
- concentration at 600 min [3, 14]: 0 µg/mL
- concentration at 720 min [3, 13]: 0 µg/mL
- concentration at 720 min [3, 14]: 0 µg/mL
- Cmax [3, 15]: 2800 ± 100 ng/mL
- k el [3, 15]: 0.000111 s⁻¹
- MRT [3, 15]: 1.7 ± 0.2 h
- Tmax [3, 15]: 33 min
- half-life ([3]; Wistar, rat, plasma, two-compartment model, Kinetica 5.0, read-out: elimination half-life α (t1/2α)): 16 min
- half-life ([3]; Wistar, rat, plasma, two-compartment model, Kinetica 5.0, read-out: elimination half-life β (t1/2β) (converted)): 180 min
- AUCtot, area under the plasma concentration-time curve from time zero to infinity ([3]; i.p. 75 mg/kg, rats): 2780 ± 69 µg·min/mL
- Ka, absorption rate constant ([3]; i.p. 75 mg/kg, rats): 1.4 ± 0.2 h⁻¹
- AUCtot, area under the plasma concentration-time curve from time zero to infinity ([3]; i.v. 50 mg/kg, rats): 806 ± 72 µg·min/mL
- AUCtot, area under the plasma concentration-time curve from time zero to infinity ([3]; p.o. 50 mg/kg, rats): 618 ± 63 µg·min/mL
- Ka, absorption rate constant ([3]; p.o. 50 mg/kg, rats): 0.9 ± 0.1 h⁻¹
- t1/2e, elimination half-life ([3]; p.o. 50 mg/kg, rats, 50 mg/kg): 2.5 ± 0.6 h
- K12 [3, 16]: 0.018 min⁻¹
- K21 [3, 16]: 0.019 min⁻¹
- α [3, 16]: 0.042 min⁻¹
